Measurements from patent US20130296230A1, “METHOD FOR TREATING MALARIA, METHOD FOR KILLING MALARIA PARASITE, AND USE OF THE METHODS” (RIKEN, priority 2010, published 2013).
Where two headings read alike, the source gives them in different places.

Assays:
[1] = tested on: chloroquine-resistant strain K1 of falciparum malaria parasites; settings: 100 μM 2-APB; 24 hours
From the text: (§1) Giemsa-stained smears were observed by Nikon Eclipse 80i microscope (Nikon), photographed by Nikon DXM 1200F camera (Nikon) and uploaded on a personal computer by digital photograph manager software (ACT-1; Nikon). In order to measure falciparum malaria parasite size, 50 falciparum malaria parasites were randomly selected, and areas containing these falciparum malaria parasites were manually delineated with lines on a screen. Area, perimeter, and maximum diameter of the falciparum malaria parasites cells was calculated by WinROOF software package Ver.5.8.1 (Mitani, Japan).
(§2) An effect of 2-APB on intraerythrocytic development of a chloroquine-resistant strain K1 of falciparum malaria parasites (P. falciparum) was examined by synchronized culturing malaria parasites in ring forms with initial parasitaemia of approximately 2%. The culturing was terminated at 24 hours, 48 hours, and 72 hours from the start of the synchronized culturing, and thin smears of erythrocytes were prepared for falciparum malaria parasite counting. Culture medium with 100 μM DMSO or 100 μM 2-APB was replaced at 24 hours and 48 hours from the start of the synchronized culturing. […] Parasitaemia of ring forms (Rf), trophozoites (T), early schizonts (ES) and late schizonts (LS) is shown as mean±S.D. of 3 wells. Stages with parasitaemia of less than 0.1% are not shown.

[2] = tested on: falciparum malaria parasites
Procedure: Specimens to be subjected to the electron microscopy were fixed for approximately 2 hours in 2.5% (V/V) glutaraldehyde buffered with 0.1 M phosphate buffer (pH 7.4, at 4° C.). The specimens were then post-fixed in 1% (w/V) osmium tetroxide for 1 hour.

[3] = tested on: falciparum malaria parasite FCR-3 strain; assay: Assay for examining inhibition of development of P. falciparum (synchronized culture, Giemsa smear parasitaemia count); format: cell-based
Procedure: An FCR-3 strain of falciparum malaria parasite (P. falciparum) (reference document: Hatabu T, Takada T, Taguchi N, Suzuki M, Sato K, Kano S. (2005) Antimicrob Agents Chemother. 2005 February; 49(2):493-6.) was cultured in RPMI culture medium (Invitrogen/GIBCO) in accordance with the method of Trager and Jensen (reference document: Trager, W. 86 Jensen, J. B. (1976) Science 193, 673-675.). The FCR-3 strain is a strain which takes an approximately 40 hours to undergo one development/proliferation cycle of invasion of merozoites into erythrocytes, formation of ring forms, formation of trophozoites, formation of schizonts, release of mature merozoites, and invasion of the mature merozoites into erythrocytes. To the RPMI culture medium, 0.5 weight % AlubumaxI (Invitrogen), 25 mM HEPES, 24 mM sodium hydrogen carbonate, 0.5 g/L L-glutamine, 50 mg/L hypoxanthine, 25 μg/ml gentamicin (Sigma), and human erythrocytes with 5% hematocrit (provided by a healthy volunteer) were added. Further, synchronized culturing was carried out with the use of 5 weight % d-sorbitol (reference document: Lambros, C. 86 Vanderberg, J. P. (1979) J. Parasitol. 65, 418-420.) to synchronize developments of P. falciparum.
Effects of 2-APB (2-aminoethyl diphenylborinate) and LZ (luzindole) on intraerythrocytic falciparum malaria parasite development were examined with the use of a culture of falciparum malaria parasites in a ring form stage with initial parasitaemia of approximately 1%.
First, 500 μl of the culture was injected into each well of a tissue culture plate (24-well flat-bottom plate, Corning). 2-APB and LZ were dissolved in dimethyl sulfoxide (DMSO, HYBRI-MAX (Registered Trademark), Sigma) to be 10 mM and 100 mM in concentration, respectively. In this way, stock solutions of these compounds were prepared. The stock solutions were diluted with the RPMI culture medium, and were added to each well of the tissue culture plate in an amount to be a predetermined final concentration in the well. Further, DMSO was diluted with the PPMI culture medium and was added to each well of a tissue culture plate in an amount to be a predetermined final concentration in the well, and was used as a control. Culturing was carried out in each well for a predetermined period of time.
After elapse of the predetermined period of time, a drop of the erythrocytes-containing culture in each well of the tissue culture plate was smeared on a glass slide and giemsa-stained. The number of erythrocytes infected with falciparum malaria parasites out of 2000 erythrocytes was counted so as to determine parasitaemia.

[4] = tested on: chloroquine-resistant strain K1 of falciparum malaria parasites (P. falciparum)
Procedure: as §2

[5] = tested on: malaria parasites; settings: cited from earlier work
[6] = tested on: falciparum malaria parasites; settings: cultured 30 hours in presence of 2-APB
Procedure: ER-Tracker Red (Invitrogen). […] ER-Tracker Red was then added to the erythrocyte suspension so as to be 0.5 μM in final concentration, and the mixture was shaken at 200 rpm for 30 minutes at 37° C.

[7] = tested on: falciparum malaria parasite FCR-3 strain
From the text: as §1
In order to quantitatively examine the effect of 2-APB on intraerythrocytic falciparum malaria parasite development, the area, perimeter and maximum diameter (hereinafter referred to collectively as “three parameters”) of falciparum malaria parasite cells were analyzed at 15 hours, 30 hours, and 40 hours from the start of the synchronized culturing. At 40 hours from the start of the synchronized culturing, only schizonts were analyzed.
In order to investigate an effect of 2-APB in the ring form stage, 100 μM 2-APB was added to falciparum malaria parasites that were being synchronized-cultured, and sizes of the falciparum malaria parasites were measured after 10 hours of culturing and after 20 hours of culturing. In some assays (“removed at 10 h” in (f) of FIG. 6), 100 μM 2-APB was added at start of the culturing and removed after 10 hours of culturing, and then sizes of falciparum malaria parasites were measured after 20 hours of culturing (see (f) of FIG. 6). […] Fifty falciparum malaria parasites were measured in each experimental group. P values compared with the controls (in the presence of DMSO) are given in each panel (two-tailed unpaired t test with Welch's correction).

[8] = tested on: falciparum malaria parasites (P. falciparum); assay: Intracellular fluorescence Ca2+ imaging of P. falciparum in intraerythrocytic stage; format: cell-based
Procedure: Next, 1 ml of the culture of the erythrocytes that had been thus diluted was collected by centrifugation (at 1,000 g for five minutes at room temperature), then resuspended in 350 μL BSA(−) culture medium constituted by the same constituents as the BSA(−) culture medium mentioned above (hereinafter referred to as “erythrocyte resuspension (1)”).
Erythrocytes were then washed once with 10 mL BSA(−) culture medium (1000 g for 5 minutes at room temperature) and resuspended in 600 μL BSA(+) culture medium (the BSA(−) culture medium supplemented with 0.5 weight % Albumax 1 and 25 μg/mL gentamicin (Sigma)) (hereinafter referred to as “erythrocyte resuspension (2)”). Next, 100 μL of the erythrocyte resuspension (2) was inoculated in a 35 mm glass-bottomed dish (MatTek Corp.) coated with 0.1 mg/ml poly-L-lysine. After 30 minutes of incubation in an O2/CO2 incubator, suspended erythrocytes were gently washed with BSA(+) culture medium before collecting.
The glass-bottomed dish was then placed in a culture chamber in which an O2 level, a CO2 level, temperature, and humidity were maintained under conditions (O2 level: 5%, CO2 level, 5%, temperature: 37° C.) used for conventional in vitro culturing of malaria parasites.
The acquisition of the transparent images and acquisition of light emissions were carried out by the true spectral detection method developed by Leica Microsystems. The imaging was carried out at intervals of every 5 to 15 seconds for duration of 300 to 600 seconds. A fluorescence intensity of fluo4-AM was calculated by subtraction of background fluorescence (F) and normalized to minimum fluorescence during the imaging period (Fmin).

NCCOB(c1ccccc1)c1ccccc1 [2-APB, 2-aminoethyl diphenylborinate]
Inhibitory effect by area, perimeter and maximum diameter of parasite cells [1]: confirmed | Ultrafine structure (electron micrographs) ([2]; 100 μM 2-APB, 30 hours): highly dense chromatin masses in the nucleus and highly dense degeneration | Nuclear envelope and endoplasmic reticulum in electron micrographs ([2]; cultured in presence of 2-APB): dilated nuclear envelope and endoplasmic reticulum | Intraerythrocytic development of falciparum malaria parasites ([3]; 100 μM 2-APB vs DMSO controls, 20, 30, 40 hours of synchronized culturing): clearly delayed | Ring form parasitaemia at 45 hours ([3]; 2-APB added at late schizont stage (28 hours)): significantly decreased | Parasitaemia of ring forms at 40 hours ([3]; 2-APB added between trophozoite and early schizont stages (21 hours), compared with the removal cases): greater effect | Number of merozoites formed in each schizont ([3]; 2-APB vs DMSO, 40 hours): significantly smaller | Erythrocyte parasitaemia ([3]; 2-APB, medium replaced at 40 h, 70 hours from start of synchronized culturing): substantially zero | Developmental stage reached ([3]; 2-APB, 20 hours from start of synchronized culturing): remained at the trophozoite stage | Parasite morphology ([3]; cultured in presence of 2-APB, up to 40 hours): abnormal morphology | Parasite development in 2-APB-pretreated erythrocytes ([3]; erythrocytes treated with 2-APB only in advance, 20 and 40 hours): could develop normally | Parasitaemia of trophozoites ([4]; 100 μM 2-APB, 24 hours): tendency towards decreasing parasitaemia | Intraerythrocytic malaria parasite development ([4]; 2-APB vs DMSO, 48 hours): delayed | Number of erythrocytes infected with falciparum malaria parasite ([4]; 2-APB vs DMSO, 72 hours): much lesser | Effect of 2-APB on the K-1 strain ([4]; 24 hour from start of assay): relatively weak | Increase in concentration of calcium ion in cytoplasm brought about by melatonin ([5]; 2-APB administered to malaria parasites): suppressed | Promotion of calcium discharge by 2-APB itself ([5]; malaria parasites): no effect | Endoplasmic reticulum tracker signals [6]: became broad and extended to the cytosol | Area, perimeter and maximum diameter of parasite cells ([7]; 100 μM 2-APB present for 10 hours and 20 hours vs DMSO): significantly smaller | Area, perimeter and maximum diameter of parasite cells ([7]; 100 μM 2-APB removed at 10 hours, measured at 20 hours vs DMSO): no statistically significant difference | Area, perimeter and maximum diameter of parasite cells ([7]; 100 μM 2-APB vs DMSO, 15, 30 and 40 hours): significant decreases | Spontaneous Ca2+ oscillations ([8]; 100 μM 2-APB, early ring form and trophozoite stages): almost completely blocked | Ca2+ fluctuations ([8]; 100 μM 2-APB, late ring form, schizont and merozoite stages): no notable effect | Amplitude of periodic Ca2+ fluctuations (mean max minus mean min F/Fmin) ([8]; 2-APB, late ring form, schizont, merozoite stages, quantitative analysis): statistically significant effect of 2-APB was observed only in the merozoite stage

C/C=C/[C@H]1O[C@@](O)([C@@H](C)[C@H](O)[C@H](C)[C@H]2OC(=O)/C(OC)=C/C(C)=C/[C@@H](C)[C@@H](O)[C@@H](CC)[C@@H](O)[C@H](C)C/C(C)=C/C=C/[C@@H]2OC)C[C@@H](O[C@H]2C[C@@H](O)[C@H](OC(N)=O)[C@@H](C)O2)[C@@H]1C [CMA, concanamycin A]
Ca2+ oscillations ([8]; pre-treatment with 100 nM CMA, early ring forms and trophozoites): no effect

CC(=O)NCCc1c(Cc2ccccc2)[nH]c2ccccc12 [LZ, luzindole]
Intraerythrocytic falciparum malaria parasite development ([3]; 250 μM LZ, 20, 40, 70 hours): clearly inhibited | Developmental stage reached ([3]; 250 μM LZ, 20 hours): remained in a transition stage from ring forms to early trophozoites | Developmental stage reached ([3]; 250 μM LZ, 40 hours): most of the falciparum malaria parasites remained in the transition stage from ring forms to early trophozoites | Developmental stage reached ([3]; 250 μM LZ, 70 hours): remained in the transition stage from ring forms to early trophozoites even at 70 hours

C/C=C(/C)C(=O)O[C@H]1C(C)=C2[C@H]([C@@H]1OC(=O)CCCCCCC)[C@@](C)(OC(C)=O)C[C@H](OC(=O)CCC)[C@@]1(O)[C@H]2OC(=O)[C@@]1(C)O [Tg, thapsigargin]
Ca2+ oscillations ([8]; pre-treatment with 2 μM Tg for 30 minutes, early ring forms and trophozoites): blocked

COc1ccc2c(c1)CC[C@@H]1[C@@H]2CC[C@]2(C)[C@@H](NCCCCCCN3C(=O)C=CC3=O)CC[C@@H]12 [U73122]
Ca2+ oscillations ([8]; 5 minutes pre-treatment with 10 μM U73122, early ring form and trophozoite stages): almost completely blocked
